For 9 molecules, TGI and GI50 results are on record in PubChem BioAssay (NCI).

Each structure is given as a SMILES string. Values joined by “and” are separate entries in the source; they are usually repeats but may differ in a detail not shown here. Identical values can stand only once.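 Values below derive from 48-hour exposures of cells grown in 96-well plates, with endpoints linearly interpolated between the two concentrations bracketing the appropriate inhibition level. GI50 = concentration required for 50% inhibition of growth. At the TGI there is no net growth.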

Common to all, as to assay: inhibition of tumour cell growth, NCI panel, 48 h
In assay [1] the test system is HCT-15 colon.
Assay [2] relates to MALME-3M melanoma.
In assay [3] the test system is IGROV1 ovarian.
Assay [4] concerns HS 578T breast.
In assay [5] the test system is NCI-H226 lung.
For assay [6], the system named is HT29 colon.
Assay [7] deals with KM12 colon.
Assay [8] has as its system CAKI-1 renal.
The subject of assay [9] is 786-0 renal.
The subject of assay [10] is SF-539 CNS.

For the molecule `N#Cc1c(-c2nc3ccccc3s2)c(=O)oc2cc(O)ccc12`, the TGI in assay [1] is over 100 µM; in assay [2] it was 95.9 µM; in [3], over 100 µM; in [4] it was over 100 µM; in [5], over 100 µM; in assay [6], over 100 µM. For the same molecule, the TGI in assay [7] was 73 µM; in assay [8], 85.6 µM; in [9] it was over 100 µM; in [10] it was over 100 µM.

`N#Cc1cn(C2OC(CO)C(O)C2O)c2ncnc(N)c12` (stereo unspecified): the GI50 was under 0.0117 µM in [1]; 0.0266 µM in [3]; under 0.01 µM in assay [6]; 0.0705 µM and 0.045 µM and < 0.01 µM in [8]. For the same molecule, the TGI in [4] was 1.33 µM; in [7] it was over 100 µM; in assay [9], over 100 µM.

On to `COc1cc2c3c(n(C)c(=O)c2cc1OC)-c1cc2c(cc1/C3=C\CCCCCN)OCO2`, for which the GI50 is 1.58 µM in assay [1]; 8.38 µM in assay [2]; under 0.01 µM in assay [3]; 11.7 µM in assay [4]; 0.601 µM in [5]; 1.17 µM in assay [6]. Moreover, the GI50 in [7] is under 0.01 µM; in [8], 1.63 µM; in assay [9], 0.979 µM; in assay [10] it was 1.96 µM. Further, the TGI is 12.7 µM in assay [1]; 37.8 µM in assay [2]; 1.34 µM in assay [3]; 46.1 µM in assay [4]; 13.7 µM in assay [5]; over 100 µM in [6]. The TGI in [7] is 90.1 µM; in assay [8], 54.2 µM; in [9], over 50.9 µM; in assay [10], 14.8 µM.

Take `N=C1C(c2nc(-c3ccc(Br)cc3)cs2)=C(O)CN1Cc1cccnc1`: the GI50 is 24.4 µM in assay [1]; 14.6 µM in assay [2]; 11.2 µM in [5]; 13.4 µM in assay [6]; 18.9 µM in [7]; 35 µM in assay [8]. In addition, the GI50 in assay [9] is 15.3 µM; in assay [10] it was 15.5 µM. Further, the TGI in assay [1] is over 100 µM; in assay [2] it was over 100 µM; in [4], 2.86 µM; in assay [5] it was 33.3 µM; in [6], over 100 µM; in [7], over 100 µM. For the same molecule, the TGI in assay [8] was over 100 µM; in assay [9], 34.3 µM; in assay [10] it was 84.8 µM.

On to `O=C(Oc1ccc(Cl)cc1Cl)c1ccccc1Nc1ccnc(C(F)(F)F)c1`, for which the GI50 was 2.26 µM in assay [1]; 17.8 µM in assay [3]; 24.9 µM in assay [4]; 3.46 µM in [5]; 3.69 µM in assay [7]; 2.1 µM in assay [8]. For the same molecule, the GI50 in assay [9] was 1.93 µM; in assay [10], 3.77 µM. Further, the TGI in assay [1] was 5.31 µM; in [3], over 100 µM; in assay [4], 73.9 µM; in assay [5], 18.6 µM; in [7], 21.1 µM; in [8] it was 4.14 µM. In addition, the values for the TGI in assay [9] and in assay [10] were 5.87 µM and 12 µM, respectively.

Consider `ClCc1cccc(Cn2cnc3c(Cl)ncnc32)c1`, for which the GI50 in assay [1] is 2.17 µM; in assay [3] it was 9.31 µM; in [4], 3.48 µM; in [5] it was 2.15 µM; in assay [6] it was 3.25 µM; in [7] it was 3.47 µM. Also, the GI50 was 1.53 µM in assay [8], 6.17 µM in assay [9] and 20.1 µM in assay [10]. The TGI is 4.64 µM in assay [1]; 33.5 µM in assay [3]; 11.5 µM in assay [4]; 4.38 µM in assay [5]; over 100 µM in [6]; 13.4 µM in assay [7]. In addition, the TGI turned out to be 2.93 µM in assay [8], 19.7 µM in assay [9] and 35.3 µM in assay [10].

`Cc1ccc(-[n+]2c3cc(N)c(C)cc3nc3cc(C)c(Nc4ccccc4)cc32)cc1`: the GI50 in assay [3] is 0.166 µM; in assay [4], 0.0734 µM; in assay [6], 0.0377 µM; in [7], 0.0767 µM; in assay [8], 0.173 µM; in assay [9], 0.2 µM. Also, the TGI in assay [3] stood at 1.54 µM; in [4], 0.415 µM; in assay [6] it was 0.345 µM; in assay [7], 0.3 µM; in [8], 0.461 µM; in [9], 0.644 µM.

`COc1cc(-c2nn(-c3ccc(NC(=O)c4ccc(Cl)c(Cl)c4)cc3)cc2-c2ccncc2)ccc1Cl`: the GI50 was 2.68 µM in assay [1]; over 100 µM in assay [3]; 4.13 µM in assay [4]; over 100 µM in [5]; 2.9 µM in [6]; 5.97 µM in assay [7]. In addition, the values for the GI50 in assay [8], in assay [9] and in assay [10] were 3.67 µM, 2.05 µM and 2.85 µM, respectively. Moreover, the TGI in assay [1], in assay [3], in assay [4], in [5], in assay [6] and in [7] was over 100 µM each time. Further, the TGI in assay [8] is over 100 µM; in assay [9] it was 4.59 µM; in assay [10], over 100 µM.

On to `CN(C)c1cccc2c(S(=O)(=O)N[C@H]3CC[C@H]4[C@@H]5CCc6cc(O)ccc6[C@H]5CC[C@]34C)cccc12`, for which the GI50 in assay [1] is 0.951 µM; in assay [2], 1.9 µM; in assay [3], 3.45 µM; in assay [4], 2.86 µM; in assay [5] it was 3.02 µM; in [6], 2.5 µM. For the same molecule, the GI50 in assay [8] is 2.05 µM; in assay [9], 3.18 µM; in assay [10], 1.88 µM. The TGI in [1] was determined as 8.38 µM; in assay [2] it was 5.61 µM; in [3] it was 16.2 µM; in [4], 11.3 µM; in assay [5], 11.2 µM; in [6], 5.45 µM. In addition, the TGI was 7.43 µM in assay [8], 9.78 µM in [9] and 4.14 µM in assay [10].
